These results are taken from ChEMBL document CHEMBL1201862, “PubChem BioAssay data set” (2004).

Experiment [1] can be described thus: HEp-2 cell cytotoxicity, dose response, cytotoxicity control for RSV inhibitor project, HTS (AID 2410). Format: functional. To be noted: human respiratory syncytial virus.
The test system of a further experiment is Vero. Nature of the experiment: cells. The format is functional, cell-based. To be noted: Chlorocebus sabaeus.
The next experiment addresses Beta-galactosidase (Escherichia coli, UniProt Q8VNN2). Briefly: PubChem AID 485352. Format: functional.
Experiment [2] addresses T1, Type-1 angiotensin II receptor (Homo sapiens, UniProt P30556).
T1 sequence (P30556 whole entry): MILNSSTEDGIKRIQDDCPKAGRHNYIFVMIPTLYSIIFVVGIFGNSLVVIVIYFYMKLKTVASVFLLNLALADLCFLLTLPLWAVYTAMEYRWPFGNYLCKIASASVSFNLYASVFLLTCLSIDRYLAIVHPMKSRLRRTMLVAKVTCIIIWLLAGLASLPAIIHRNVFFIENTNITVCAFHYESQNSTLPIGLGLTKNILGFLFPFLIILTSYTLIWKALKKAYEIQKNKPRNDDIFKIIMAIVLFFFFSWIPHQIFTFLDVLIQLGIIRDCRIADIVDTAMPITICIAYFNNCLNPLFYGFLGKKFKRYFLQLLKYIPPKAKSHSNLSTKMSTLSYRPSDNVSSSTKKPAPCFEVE
Briefly: AT1 receptor antagonists, dose response, selectivity assay for APJ receptor antagonist project, cell-based, uHTS hits (AID 463214).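 Note: antagonist potency against angiotensin II stimulated AT1 response.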 The format is functional.

The target of experiment [3] is T2, Sentrin-specific protease 8 (Homo sapiens, UniProt Q96LD8).
T2 sequence (Q96LD8 whole entry): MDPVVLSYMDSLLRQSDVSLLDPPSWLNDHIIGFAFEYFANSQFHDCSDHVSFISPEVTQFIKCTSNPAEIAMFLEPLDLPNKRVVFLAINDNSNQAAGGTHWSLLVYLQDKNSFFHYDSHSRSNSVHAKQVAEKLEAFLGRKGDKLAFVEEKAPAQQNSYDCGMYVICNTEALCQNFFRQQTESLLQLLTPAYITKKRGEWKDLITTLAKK
Nature of the experiment: SENP8 protease inhibitors, SAR follow-up, biochemical, luminescence (AID 504501). The format is functional.

Experiment [4] addresses T3, Caspase-3 (Homo sapiens, UniProt P42574).
T3 sequence (P42574 whole entry): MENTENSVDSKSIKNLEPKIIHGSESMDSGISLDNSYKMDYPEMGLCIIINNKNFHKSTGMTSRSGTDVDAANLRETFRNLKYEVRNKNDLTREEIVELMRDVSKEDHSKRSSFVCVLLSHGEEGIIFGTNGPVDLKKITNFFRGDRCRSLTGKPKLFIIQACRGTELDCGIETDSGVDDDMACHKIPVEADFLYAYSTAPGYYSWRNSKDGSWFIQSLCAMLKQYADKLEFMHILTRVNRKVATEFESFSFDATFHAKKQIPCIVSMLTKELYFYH
Nature of the experiment: caspase-3 inhibitors as off-family protease, SAR follow-up, selectivity assay for SENP protease inhibitor project, biochemical, luminescence, set 2 (AID 588599). The format is functional.

Experiment [5] deals with T2, Sentrin-specific protease 8. Nature of the experiment: SENP8 protease inhibitors, SAR follow-up, biochemical, luminescence, set 2 (AID 588601). The format is functional.
Experiment [6] has as its target T3, Caspase-3. Nature of the experiment: SAR Analysis of small molecule inhibitors of Sentrin-specific proteases (SENPs) using a Caspase-3 Selectivity assay. [Related pubchem assays (depositor defined):AID2540, AID2599, AID434973, AID489001]. The format is functional.
Experiment [7] deals with T4, Sentrin-specific protease 7 (Homo sapiens, UniProt Q9BQF6).
T4 sequence (Q9BQF6 whole entry): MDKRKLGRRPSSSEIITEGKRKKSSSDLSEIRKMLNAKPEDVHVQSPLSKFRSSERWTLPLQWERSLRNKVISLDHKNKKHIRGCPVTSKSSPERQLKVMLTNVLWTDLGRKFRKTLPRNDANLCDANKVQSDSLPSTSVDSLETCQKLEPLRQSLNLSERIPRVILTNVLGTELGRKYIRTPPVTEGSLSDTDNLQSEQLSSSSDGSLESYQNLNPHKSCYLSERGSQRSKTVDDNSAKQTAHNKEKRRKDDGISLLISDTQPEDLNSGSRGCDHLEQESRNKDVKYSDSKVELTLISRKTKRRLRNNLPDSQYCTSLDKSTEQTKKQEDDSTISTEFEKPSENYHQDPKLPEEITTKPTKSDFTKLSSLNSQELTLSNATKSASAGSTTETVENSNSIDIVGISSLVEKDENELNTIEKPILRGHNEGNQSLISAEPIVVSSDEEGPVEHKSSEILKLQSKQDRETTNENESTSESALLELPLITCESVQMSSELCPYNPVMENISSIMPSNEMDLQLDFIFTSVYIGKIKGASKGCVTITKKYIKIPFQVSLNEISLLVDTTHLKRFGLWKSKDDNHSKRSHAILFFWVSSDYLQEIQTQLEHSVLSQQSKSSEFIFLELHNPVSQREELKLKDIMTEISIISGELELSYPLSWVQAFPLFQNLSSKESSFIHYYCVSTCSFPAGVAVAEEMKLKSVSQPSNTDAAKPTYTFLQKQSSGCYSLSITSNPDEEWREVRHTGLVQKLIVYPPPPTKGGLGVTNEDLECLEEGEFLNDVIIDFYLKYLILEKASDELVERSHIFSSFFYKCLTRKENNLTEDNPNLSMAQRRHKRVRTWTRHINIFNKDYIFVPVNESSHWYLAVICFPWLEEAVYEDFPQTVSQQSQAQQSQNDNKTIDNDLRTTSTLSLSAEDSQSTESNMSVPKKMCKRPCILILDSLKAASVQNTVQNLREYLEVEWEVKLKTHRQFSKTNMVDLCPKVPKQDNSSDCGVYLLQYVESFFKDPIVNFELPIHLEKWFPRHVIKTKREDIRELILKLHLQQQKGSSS
Nature of the experiment: SENP7 protease inhibitors, SAR follow-up, biochemical, luminescence, set 2 (AID 588600). The format is functional.

Experiment [8] deals with T5, Sentrin-specific protease 6 (Homo sapiens, UniProt Q9GZR1).
T5 sequence (Q9GZR1 whole entry): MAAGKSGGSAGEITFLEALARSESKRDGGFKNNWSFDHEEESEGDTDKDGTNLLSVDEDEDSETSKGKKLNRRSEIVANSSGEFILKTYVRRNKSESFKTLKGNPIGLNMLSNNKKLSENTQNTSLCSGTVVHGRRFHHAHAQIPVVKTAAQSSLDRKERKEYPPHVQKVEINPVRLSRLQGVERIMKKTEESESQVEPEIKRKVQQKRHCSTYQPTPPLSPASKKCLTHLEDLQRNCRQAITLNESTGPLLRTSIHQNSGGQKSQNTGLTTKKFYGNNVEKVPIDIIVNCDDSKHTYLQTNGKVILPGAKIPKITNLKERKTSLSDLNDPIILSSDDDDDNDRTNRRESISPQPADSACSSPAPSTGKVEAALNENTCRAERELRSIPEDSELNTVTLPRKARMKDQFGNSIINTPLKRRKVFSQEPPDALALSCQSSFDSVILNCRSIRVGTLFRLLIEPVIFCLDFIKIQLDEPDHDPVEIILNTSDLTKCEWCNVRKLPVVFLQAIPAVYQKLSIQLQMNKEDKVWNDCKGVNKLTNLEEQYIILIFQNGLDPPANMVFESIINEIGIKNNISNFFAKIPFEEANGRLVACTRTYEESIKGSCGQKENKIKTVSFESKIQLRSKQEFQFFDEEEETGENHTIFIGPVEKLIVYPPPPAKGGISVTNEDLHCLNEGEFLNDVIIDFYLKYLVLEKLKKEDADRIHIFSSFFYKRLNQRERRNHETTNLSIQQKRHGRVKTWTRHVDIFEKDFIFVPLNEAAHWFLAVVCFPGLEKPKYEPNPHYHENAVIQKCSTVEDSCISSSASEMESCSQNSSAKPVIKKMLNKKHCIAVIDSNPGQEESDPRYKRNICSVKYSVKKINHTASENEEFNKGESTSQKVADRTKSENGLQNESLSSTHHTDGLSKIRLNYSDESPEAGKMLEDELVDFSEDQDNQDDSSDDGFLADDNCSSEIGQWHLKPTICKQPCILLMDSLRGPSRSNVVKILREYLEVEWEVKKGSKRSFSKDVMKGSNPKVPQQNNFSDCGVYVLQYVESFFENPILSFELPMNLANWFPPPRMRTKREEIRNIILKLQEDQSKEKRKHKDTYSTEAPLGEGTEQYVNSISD
Nature of the experiment: SAR Analysis of small molecule inhibitors of Sentrin-specific protease 6 (SENP6) using a Luminescent assay. [Related pubchem assays (depositor defined):AID2582, AID2599]. The format is functional.

The target in experiment [9] is T4, Sentrin-specific protease 7. Nature of the experiment: SENP7 protease inhibitors, SAR follow-up, biochemical, luminescence (AID 504497). The format is functional.
A short description of experiment [10]: insulin promoter down-regulators in MIN6 cells, imaging, high-content screening, mouse beta cells (AID 1628). The format is functional.
Experiment [11] in a line: cytotoxicity in MIN6 insulinoma cells, dose response, cytotoxicity control, cell-based, mouse insulinoma (AID 2122).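 Note: confirmatory high-throughput counterscreen run to flag cytotoxic compounds; mouse MIN-6 beta cells carrying an insulin promoter eGFP reporter.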 Format: functional.
Experiment [12] addresses T6, Fatty acid synthase (Homo sapiens, UniProt P49327). Briefly: FAS thioesterase domain inhibitors, dose response, biochemical, endpoint fluorescence intensity, uHTS hits (AID 624327).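 Note: fluorescence from hydrolysis of an O-methyl fluorescein acyl ester substrate by the enzyme.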 Format: functional.
Experiment [13] deals with T6, Fatty acid synthase. Nature of the experiment: FAS thioesterase domain inhibitors, dose response, biochemical, kinetic fluorescence intensity (AID 624326).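 Note: rate of fluorescence rise from hydrolysis of a fluorogenic O-methyl fluorescein ester substrate.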 Format: functional.
The next experiment deals with Tumor necrosis factor (Homo sapiens, UniProt P01375). Briefly: TNFa-triggered NF-kB activation inhibitors, SAR follow-up, cell-based, revised (AID 2337). Format: functional.
Sequence of Tumor necrosis factor (P01375 whole entry, the tested form may be a part): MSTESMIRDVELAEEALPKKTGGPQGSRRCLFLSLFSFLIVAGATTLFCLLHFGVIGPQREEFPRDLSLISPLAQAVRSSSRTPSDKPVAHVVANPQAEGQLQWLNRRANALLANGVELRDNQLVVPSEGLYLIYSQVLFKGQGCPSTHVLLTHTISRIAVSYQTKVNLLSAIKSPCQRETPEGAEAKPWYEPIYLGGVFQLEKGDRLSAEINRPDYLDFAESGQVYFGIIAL
For experiment [14], the target named is T7, Nucleotide-binding oligomerization domain-containing protein 1 (Homo sapiens, UniProt Q9Y239).
T7 sequence (Q9Y239 whole entry): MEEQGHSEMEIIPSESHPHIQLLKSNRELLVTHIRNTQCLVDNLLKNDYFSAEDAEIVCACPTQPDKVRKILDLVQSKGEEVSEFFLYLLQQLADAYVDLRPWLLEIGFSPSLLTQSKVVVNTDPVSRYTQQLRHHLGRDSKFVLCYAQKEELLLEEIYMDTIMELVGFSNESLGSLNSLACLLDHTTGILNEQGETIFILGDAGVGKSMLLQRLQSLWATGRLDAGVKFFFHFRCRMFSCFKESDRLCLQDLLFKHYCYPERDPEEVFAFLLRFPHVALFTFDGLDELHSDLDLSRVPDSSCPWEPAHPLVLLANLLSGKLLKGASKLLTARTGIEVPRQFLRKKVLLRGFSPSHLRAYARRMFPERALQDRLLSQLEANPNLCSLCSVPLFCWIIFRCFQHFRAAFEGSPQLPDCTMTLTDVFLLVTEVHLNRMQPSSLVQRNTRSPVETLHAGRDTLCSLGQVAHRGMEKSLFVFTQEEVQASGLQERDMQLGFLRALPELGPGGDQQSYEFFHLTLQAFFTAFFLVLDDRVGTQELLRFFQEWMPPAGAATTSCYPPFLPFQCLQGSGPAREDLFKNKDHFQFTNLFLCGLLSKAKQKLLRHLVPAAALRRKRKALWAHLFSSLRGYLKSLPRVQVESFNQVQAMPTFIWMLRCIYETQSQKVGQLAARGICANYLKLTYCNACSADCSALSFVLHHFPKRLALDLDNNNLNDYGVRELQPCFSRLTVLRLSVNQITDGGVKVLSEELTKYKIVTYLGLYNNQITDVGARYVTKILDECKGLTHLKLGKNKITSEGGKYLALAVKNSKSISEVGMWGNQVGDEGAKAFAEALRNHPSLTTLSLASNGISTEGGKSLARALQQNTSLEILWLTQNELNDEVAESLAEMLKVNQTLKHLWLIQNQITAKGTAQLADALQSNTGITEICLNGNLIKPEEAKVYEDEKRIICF
Briefly: NOD1 signaling inhibitors, SAR follow-up, revised (AID 2333). Format: functional.

For the next experiment, the system named is HEK293. Briefly: cells. To be noted: Homo sapiens.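 Note: cells exposed to compound for 14 hours overnight before viability readout.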

The source made the active and inactive calls.

Sequence of Beta-galactosidase (Q8VNN2 whole entry): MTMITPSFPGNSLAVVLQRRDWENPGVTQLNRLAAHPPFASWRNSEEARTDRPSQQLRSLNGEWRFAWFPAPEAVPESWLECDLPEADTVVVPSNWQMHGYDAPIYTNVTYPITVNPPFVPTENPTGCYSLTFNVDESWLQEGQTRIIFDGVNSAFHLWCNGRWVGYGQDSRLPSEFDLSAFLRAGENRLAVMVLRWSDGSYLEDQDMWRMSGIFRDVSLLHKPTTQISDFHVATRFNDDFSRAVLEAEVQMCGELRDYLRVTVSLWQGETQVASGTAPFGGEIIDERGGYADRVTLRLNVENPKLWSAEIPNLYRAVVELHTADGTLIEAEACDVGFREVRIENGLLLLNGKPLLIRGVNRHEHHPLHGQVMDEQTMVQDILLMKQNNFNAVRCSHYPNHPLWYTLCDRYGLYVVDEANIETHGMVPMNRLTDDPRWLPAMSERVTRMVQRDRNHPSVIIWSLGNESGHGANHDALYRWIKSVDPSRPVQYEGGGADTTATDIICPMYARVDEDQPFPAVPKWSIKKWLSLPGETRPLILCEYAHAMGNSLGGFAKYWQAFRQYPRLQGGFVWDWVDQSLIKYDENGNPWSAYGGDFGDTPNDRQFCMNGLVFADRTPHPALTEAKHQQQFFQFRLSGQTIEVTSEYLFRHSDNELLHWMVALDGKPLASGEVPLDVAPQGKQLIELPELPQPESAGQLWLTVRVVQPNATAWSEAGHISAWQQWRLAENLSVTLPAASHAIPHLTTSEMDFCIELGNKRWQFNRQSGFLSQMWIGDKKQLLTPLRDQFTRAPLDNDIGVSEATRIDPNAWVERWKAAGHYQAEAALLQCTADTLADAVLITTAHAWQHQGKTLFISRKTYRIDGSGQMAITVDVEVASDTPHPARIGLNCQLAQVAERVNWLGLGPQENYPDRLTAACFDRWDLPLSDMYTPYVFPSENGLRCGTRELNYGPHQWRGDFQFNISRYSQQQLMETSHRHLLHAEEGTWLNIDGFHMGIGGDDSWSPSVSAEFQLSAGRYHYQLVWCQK
T6 sequence (P49327 whole entry, the tested form may be a part): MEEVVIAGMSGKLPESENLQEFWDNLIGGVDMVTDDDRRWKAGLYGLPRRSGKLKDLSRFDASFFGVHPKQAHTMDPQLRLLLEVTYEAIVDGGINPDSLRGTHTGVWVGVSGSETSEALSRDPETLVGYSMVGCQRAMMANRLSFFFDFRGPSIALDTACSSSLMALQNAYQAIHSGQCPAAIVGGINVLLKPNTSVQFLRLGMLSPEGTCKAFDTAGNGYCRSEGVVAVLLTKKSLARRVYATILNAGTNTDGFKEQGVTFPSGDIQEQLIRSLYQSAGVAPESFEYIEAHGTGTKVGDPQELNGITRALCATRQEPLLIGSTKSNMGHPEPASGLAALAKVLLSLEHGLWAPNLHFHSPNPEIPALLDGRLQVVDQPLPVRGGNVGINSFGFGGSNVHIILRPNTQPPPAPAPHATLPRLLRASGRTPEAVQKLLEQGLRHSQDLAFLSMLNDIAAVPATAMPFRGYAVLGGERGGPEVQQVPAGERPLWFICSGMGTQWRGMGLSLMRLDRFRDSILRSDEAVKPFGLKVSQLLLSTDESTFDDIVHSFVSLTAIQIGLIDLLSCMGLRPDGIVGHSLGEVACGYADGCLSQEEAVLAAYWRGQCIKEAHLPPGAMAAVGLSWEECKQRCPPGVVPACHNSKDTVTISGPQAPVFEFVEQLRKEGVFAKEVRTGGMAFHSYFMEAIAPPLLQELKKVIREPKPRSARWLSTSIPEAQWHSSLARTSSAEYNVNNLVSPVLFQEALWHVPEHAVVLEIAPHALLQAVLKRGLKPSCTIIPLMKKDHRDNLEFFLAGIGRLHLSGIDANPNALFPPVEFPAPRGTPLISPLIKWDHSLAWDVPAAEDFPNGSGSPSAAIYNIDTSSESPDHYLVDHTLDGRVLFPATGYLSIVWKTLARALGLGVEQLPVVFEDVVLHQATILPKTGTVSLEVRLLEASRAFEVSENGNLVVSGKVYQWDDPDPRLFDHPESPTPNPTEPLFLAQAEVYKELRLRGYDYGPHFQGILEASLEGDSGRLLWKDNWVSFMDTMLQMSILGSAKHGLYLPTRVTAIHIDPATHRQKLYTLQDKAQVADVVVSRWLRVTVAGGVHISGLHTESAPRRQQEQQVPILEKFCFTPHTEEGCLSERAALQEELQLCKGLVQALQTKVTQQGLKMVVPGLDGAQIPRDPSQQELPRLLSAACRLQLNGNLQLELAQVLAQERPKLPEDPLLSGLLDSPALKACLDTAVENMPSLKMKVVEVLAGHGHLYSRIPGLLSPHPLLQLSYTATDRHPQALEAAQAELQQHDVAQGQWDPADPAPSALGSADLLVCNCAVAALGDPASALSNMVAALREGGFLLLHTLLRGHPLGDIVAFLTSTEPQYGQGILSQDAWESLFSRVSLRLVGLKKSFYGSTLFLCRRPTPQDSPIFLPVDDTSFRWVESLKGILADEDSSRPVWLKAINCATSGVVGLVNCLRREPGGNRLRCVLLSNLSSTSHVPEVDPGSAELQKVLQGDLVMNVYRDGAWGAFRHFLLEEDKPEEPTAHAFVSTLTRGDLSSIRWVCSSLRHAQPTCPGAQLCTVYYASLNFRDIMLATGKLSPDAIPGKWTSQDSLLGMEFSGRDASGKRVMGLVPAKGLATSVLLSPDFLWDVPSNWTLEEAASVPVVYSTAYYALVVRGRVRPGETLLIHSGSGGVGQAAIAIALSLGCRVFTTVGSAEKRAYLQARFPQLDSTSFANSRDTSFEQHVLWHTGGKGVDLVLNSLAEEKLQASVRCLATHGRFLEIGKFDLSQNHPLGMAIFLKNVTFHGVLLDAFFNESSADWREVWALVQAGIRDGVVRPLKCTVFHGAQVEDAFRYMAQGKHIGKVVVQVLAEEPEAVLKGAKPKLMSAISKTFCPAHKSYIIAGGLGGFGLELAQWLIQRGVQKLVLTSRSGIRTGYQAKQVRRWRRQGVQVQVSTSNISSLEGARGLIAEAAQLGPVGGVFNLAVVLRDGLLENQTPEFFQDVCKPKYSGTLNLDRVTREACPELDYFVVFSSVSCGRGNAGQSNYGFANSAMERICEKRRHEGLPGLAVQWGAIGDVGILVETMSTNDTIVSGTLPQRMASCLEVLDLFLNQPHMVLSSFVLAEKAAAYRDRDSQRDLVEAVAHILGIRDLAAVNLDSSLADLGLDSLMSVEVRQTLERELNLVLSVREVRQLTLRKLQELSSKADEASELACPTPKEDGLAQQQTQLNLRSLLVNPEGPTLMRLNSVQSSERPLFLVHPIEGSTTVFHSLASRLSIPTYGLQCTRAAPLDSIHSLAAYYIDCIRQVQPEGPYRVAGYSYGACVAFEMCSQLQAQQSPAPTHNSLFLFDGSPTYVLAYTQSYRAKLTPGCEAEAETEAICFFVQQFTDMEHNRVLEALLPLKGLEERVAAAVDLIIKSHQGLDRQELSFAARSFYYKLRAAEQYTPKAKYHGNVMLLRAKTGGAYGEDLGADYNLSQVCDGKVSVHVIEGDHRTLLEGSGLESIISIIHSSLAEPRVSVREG

With `Nc1ccc(C(=O)OCCCc2nc3cc4ccccc4cc3[nH]2)cc1`, the CC50 – broadly, the concentration at which the toxic effect on the cells reaches its halfway point – in experiment [1] was 46 µM (active). Further, the IC50 (as a rule, the point on the concentration scale where inhibition reaches its midpoint) in the experiment on Vero is > 25 µM (active).
Consider `O=C(COC(=O)c1cc2ccccc2oc1=O)c1cccc([N+](=O)[O-])c1`, for which the EC50 (in general, the concentration giving half of the maximal effect) on Beta-galactosidase was > 40 µM (inactive). In [2], the 50% inhibitory concentration (IC50) was > 40 µM (not active).
On to `O=C(Nc1nc2ccc(Cl)cc2s1)c1cccs1`, for which the concentration for half-maximal inhibition (IC50) was 1.5 µM (active) in experiment [3]; 2.07 µM (active) at Caspase-3 [4]; 1.25 µM (active) in [5]; 2 µM (active) at Caspase-3 [6]; 1.39 µM (active) in experiment [7]; 1.3 µM (active) in [8]. Also, the IC50 in [9] was 1.2 µM (active).
Regarding `C(#Cc1ccccc1)C[N+]1(CC#Cc2cccc3ccccc23)CCOCC1`, the IC50 in experiment [10] is 2.29 µM (active); in experiment [11], 2.19 µM (active).
As for `Brc1ccc2[nH]c3c(c2c1)CCC3`, the IC50 with Vero is > 25 µM (active).
In the case of `O=C(CCc1ccccc1)OCC(=O)c1cccc([N+](=O)[O-])c1`, the EC50 at Beta-galactosidase was > 40 µM (inactive). Moreover, the concentration for half-maximal inhibition (IC50) in experiment [2] was 19.2 µM (active); at Fatty acid synthase [12], 11.3 µM (active); at Fatty acid synthase [13], 9.4 µM (active).
For `c1ccc(N2CCN(Cc3ccnc4ccccc34)CC2)cc1`, the IC50 in experiment [10] was 3.42 µM (active); in [11], 2.84 µM (active).
Consider `COc1cccc(N2CC(C)Cn3c2nc2c3c(=O)[nH]c(=O)n2C)c1` (stereo not given), for which the EC50 at Beta-galactosidase is > 40 µM (inactive). For the same compound, the 50% inhibitory concentration (IC50) in experiment [2] is recorded as > 40 µM (not active).
As for `CCCOc1ccc(C=NN=C(S)Nc2ccccc2[N+](=O)[O-])c(O)c1`, the IC50 was 0.88 µM (active) at Tumor necrosis factor, 7.73 µM (active) in experiment [14] and > 20 µM (inactive) with HEK293.
